Results: ChEMBL document CHEMBL1201862, “PubChem BioAssay data set” (2004)
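Method: 48-hour compound exposure of cells in 96-well plates, five concentrations, linear interpolation of endpoints. GI50 = concentration required for 50% inhibition of growth.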 Calls of active or inactive are those of the source. No stated cut-off is given here; in the data, active = GI50 up to about 1.1 µM and inactive = higher.

Tests used:
Assay in all cases: growth of human tumour cells (NCI), 48 h
786-0 = system: 786-0
COLO 205 = system: COLO 205
DU-145 = system: DU-145
HCT-116 = system: HCT-116
HOP-62 = system: HOP-62
HT-29 = system: HT-29
KM12 = system: KM12
MDA-MB-231 = system: MDA-MB-231
Malme-3M = system: Malme-3M
OVCAR-3 = system: OVCAR-3
OVCAR-8 = system: OVCAR-8
RPMI-8226 = system: RPMI-8226
RXF 393 = system: RXF 393
SF-268 = system: SF-268
SK-MEL-2 = system: SK-MEL-2
SW-620 = system: SW-620
TK-10 = system: TK-10
UACC-257 = system: UACC-257
UACC-62 = system: UACC-62
A498 = system: A498

| Structure (SMILES) | GI50 (786-0) | GI50 (COLO 205) | GI50 (DU-145) | GI50 (HCT-116) | GI50 (HOP-62) | GI50 (HT-29) | GI50 (KM12) | GI50 (MDA-MB-231) | GI50 (Malme-3M) | GI50 (OVCAR-3) | GI50 (OVCAR-8) | GI50 (RPMI-8226) | GI50 (RXF 393) | GI50 (SF-268) | GI50 (SK-MEL-2) | GI50 (SW-620) | GI50 (TK-10) | GI50 (UACC-257) | GI50 (UACC-62) | GI50 (A498) |
| --- | --- | --- | --- | --- | --- | --- | --- | --- | --- | --- | --- | --- | --- | --- | --- | --- | --- | --- | --- | --- |
| Cc1nn(C(=O)c2ccncc2)c2c1C(c1ccccc1O)SC(=N)N2 (centres undefined) | > 10 µM (inactive) | > 10 µM (inactive) | > 10 µM (inactive) | > 10 µM (inactive) | > 10 µM (inactive) | > 10 µM (inactive) | > 10 µM (inactive) | > 10 µM (inactive) | > 10 µM (inactive) | > 10 µM (inactive) | > 10 µM (inactive) | > 10 µM (inactive) | > 10 µM (inactive) | > 10 µM (inactive) | > 10 µM (inactive) | > 10 µM (inactive) | > 10 µM (inactive) | > 10 µM (inactive) | > 10 µM (inactive) | – |
| NCCN1CCCCCc2ccccc21 | > 10 µM (inactive) | > 10 µM (inactive) | > 10 µM (inactive) | > 10 µM (inactive) | > 10 µM (inactive) | > 10 µM (inactive) | > 10 µM (inactive) | – | > 10 µM (inactive) | > 10 µM (inactive) | > 10 µM (inactive) | > 10 µM (inactive) | > 10 µM (inactive) | > 10 µM (inactive) | > 10 µM (inactive) | > 10 µM (inactive) | > 10 µM (inactive) | > 10 µM (inactive) | > 10 µM (inactive) | > 10 µM (inactive) |
| O=C(Nc1ccc(Cl)cc1)c1cc(S(=O)(=O)Nc2n[nH]c(=O)[nH]2)c(SSc2cc(Cl)c(C(=O)Nc3ccc(Cl)cc3)cc2S(=O)(=O)Nc2n[nH]c(=O)[nH]2)cc1Cl | > 100 µM (inactive) | > 100 µM (inactive) | – | > 100 µM (inactive) | > 100 µM (inactive) | > 100 µM (inactive) | > 100 µM (inactive) | > 100 µM (inactive) | > 100 µM (inactive) | > 100 µM (inactive) | > 100 µM (inactive) | > 100 µM (inactive) | – | > 100 µM (inactive) | > 100 µM (inactive) | > 100 µM (inactive) | > 100 µM (inactive) | > 100 µM (inactive) | > 100 µM (inactive) | > 100 µM (inactive) |
| CSC(=S)Nc1cc(C)ccn1 | 75.2 µM (inactive) | 50.8 µM (inactive) | > 100 µM (inactive) | 70.5 µM (inactive) | > 100 µM (inactive) | > 100 µM (inactive) | > 100 µM (inactive) | 33.1 µM (inactive) | 61.4 µM (inactive) | 40.6 µM (inactive) | > 100 µM (inactive) | 97.7 µM (inactive) | > 100 µM (inactive) | 70 µM (inactive) | 93.5 µM (inactive) | > 100 µM (inactive) | > 100 µM (inactive) | > 100 µM (inactive) | > 100 µM (inactive) | – |
| CCSC1=N/C(=C/c2ccccc2O)C(=O)N1 | 28.5 µM (inactive) | > 100 µM (inactive) | > 100 µM (inactive) | > 100 µM (inactive) | 41.1 µM (inactive) | > 100 µM (inactive) | 51.1 µM (inactive) | 90.6 µM (inactive) | > 100 µM (inactive) | > 100 µM (inactive) | 41.9 µM (inactive) | > 100 µM (inactive) | 26.4 µM (inactive) | 83.2 µM (inactive) | > 100 µM (inactive) | > 100 µM (inactive) | – | > 100 µM (inactive) | > 100 µM (inactive) | – |
| O=C(NN=C1CCN(Cc2ccccc2)CC1)C(O)(c1ccccc1)c1ccccc1 | > 100 µM (inactive) | > 100 µM (inactive) | > 100 µM (inactive) | > 100 µM (inactive) | > 100 µM (inactive) | > 100 µM (inactive) | > 100 µM (inactive) | > 100 µM (inactive) | > 100 µM (inactive) | – | > 100 µM (inactive) | > 100 µM (inactive) | > 100 µM (inactive) | > 100 µM (inactive) | – | > 100 µM (inactive) | > 100 µM (inactive) | > 100 µM (inactive) | > 100 µM (inactive) | – |
| CC1=C2C(=CC(C)(CO)C2O)C(=O)C(C)(O)C12CC2 (centres undefined) | 0.00337 µM (active) | 0.00353 µM (active) | – | 0.00123 µM (active) | 0.00433 µM (active) | 0.00154 µM (active) | 0.00228 µM (active) | – | 0.00361 µM (active) | 0.00493 µM (active) | 0.00286 µM (active) | 0.895 µM (active) | 0.00163 µM (active) | 0.00114 µM (active) | 0.00148 µM (active) | 0.00142 µM (active) | 0.00719 µM (active) | 0.00249 µM (active) | 0.00286 µM (active) | 0.00716 µM (active) |
| [N-]=[N+]=C1C(=O)C2CC3CC(C2)CC1C3 | > 100 µM (inactive) | > 100 µM (inactive) | – | > 100 µM (inactive) | > 100 µM (inactive) | > 100 µM (inactive) | > 100 µM (inactive) | – | > 100 µM (inactive) | > 100 µM (inactive) | > 100 µM (inactive) | > 100 µM (inactive) | > 100 µM (inactive) | > 100 µM (inactive) | > 100 µM (inactive) | 64 µM (inactive) | > 100 µM (inactive) | > 100 µM (inactive) | > 100 µM (inactive) | > 100 µM (inactive) |
| O=c1c(O)c(-c2ccc(O)c(O)c2)oc2cc(O)ccc12 [FISETIN] | 24.8 µM (inactive) | 47.4 µM (inactive) | – | 16.3 µM (inactive) | 20.2 µM (inactive) | 25.8 µM (inactive) | 5.62 µM (inactive) | – | 20.4 µM (inactive) | 19.9 µM (inactive) | 21.8 µM (inactive) | 26.8 µM (inactive) | 23.9 µM (inactive) | 24.9 µM (inactive) | 8.75 µM (inactive) | 23.8 µM (inactive) | 29.7 µM (inactive) | 22.3 µM (inactive) | 10.7 µM (inactive) | 26.3 µM (inactive) |
| CC(=O)N1CC2Nc3ccccc3C2CC1CO (centres undefined) | > 100 µM (inactive) | > 100 µM (inactive) | – | > 100 µM (inactive) | > 100 µM (inactive) | > 100 µM (inactive) | > 100 µM (inactive) | – | > 100 µM (inactive) | > 100 µM (inactive) | > 100 µM (inactive) | > 100 µM (inactive) | > 100 µM (inactive) | > 100 µM (inactive) | > 100 µM (inactive) | > 100 µM (inactive) | > 100 µM (inactive) | > 100 µM (inactive) | > 100 µM (inactive) | > 100 µM (inactive) |
| CN(C)CCCCN1CCc2c(n(C)c3ccccc23)C1=O | 61.1 µM (inactive) | 35.3 µM (inactive) | > 84.5 µM (inactive) | 40.3 µM (inactive) | 51.3 µM (inactive) | 24.3 µM (inactive) | 68.7 µM (inactive) | 24.6 µM (inactive) | 21.7 µM (inactive) | > 78.9 µM (inactive) | > 83.4 µM (inactive) | – | 31.5 µM (inactive) | 48.1 µM (inactive) | 25.9 µM (inactive) | 44.4 µM (inactive) | – | 17.2 µM (inactive) | 26 µM (inactive) | – |
